Laboratory results as given in patent US7417156B2, “Orally active, antimalarial, anticancer, artemisinin-derived trioxane dimers” (Johns Hopkins University, priority 2002, dated 2008).

How the values were obtained:
K-562 = test: NCI 60 cell line panel screen (SRB); assay type: cell-based, human; details: for Log10LC50 / Log10TGI50: K-562 (Leukemia); for Log10LC50: LC50: PG=−50; for Log10TGI50: TGI: PG=0; for Log10GI50: Leukemia, K-562
NCI-H460 = test: NCI 60 cell line panel screen (SRB); assay type: cell-based, human; details: for Log10LC50 / Log10TGI50: NCI-H460 (Non-Small Cell Lung Cancer); for Log10LC50: LC50: PG=−50; for Log10TGI50: TGI: PG=0; for Log10GI50: Non-Small Cell Lung Cancer, NCI-H460
SK-MEL-2 = test: NCI 60 cell line panel screen (SRB); assay type: cell-based, human; details: for Log10LC50: SK-MEL2 (Melanoma), LC50: PG=−50; for Log10TGI50: SK-MEL-2 (Melanoma), TGI: PG=0
SNB-75 = test: NCI 60 cell line panel screen (SRB); assay type: cell-based, human; details: for Log10LC50 / Log10TGI50: SNB-75 (CNS Cancer); for Log10LC50: LC50: PG=−50; for Log10TGI50: TGI: PG=0
SF-539 = test: NCI 60 cell line panel screen (SRB); assay type: cell-based, human; details: for Log10GI50: CNS Cancer, SF-539; for Log10LC50 / Log10TGI50: SF-539 (CNS Cancer); for Log10LC50: LC50: PG=−50; for Log10TGI50: TGI: PG=0
TK-10 = test: NCI 60 cell line panel screen (SRB); assay type: cell-based, human; details: for Log10GI50: Renal Cancer, TK-10; for Log10LC50 / Log10TGI50: TK-10 (Renal Cancer); for Log10LC50: LC50: PG=−50; for Log10TGI50: TGI: PG=0
SK-MEL-28 = test: NCI 60 cell line panel screen (SRB); assay type: cell-based, human; details: for Log10GI50: Melanoma, SK-MEL-28; for Log10LC50 / Log10TGI50: SK-MEL-28 (Melanoma); for Log10LC50: LC50: PG=−50; for Log10TGI50: TGI: PG=0
RPMI-8226 = test: NCI 60 cell line panel screen (SRB); assay type: cell-based, human; details: for Log10GI50: Leukemia, RPMI-8226; for Log10LC50 / Log10TGI50: RPMI-8226 (Leukemia); for Log10LC50: LC50: PG=−50; for Log10TGI50: TGI: PG=0
OVCAR-5 = test: NCI 60 cell line panel screen (SRB); assay type: cell-based, human; details: for Log10LC50 / Log10TGI50: OVCAR-5 (Ovarian Cancer); for Log10LC50: LC50: PG=−50; for Log10TGI50: TGI: PG=0; for Log10GI50: Ovarian Cancer, OVCAR-5
CCRF-CEM = test: NCI 60 cell line panel screen (SRB); assay type: cell-based, human; details: for Log10LC50 / Log10TGI50: CCRF-CEM (Leukemia); for Log10LC50: LC50: PG=−50; for Log10TGI50: TGI: PG=0; for Log10GI50: Leukemia, CCRF-CEM
UACC-257 = test: NCI 60 cell line panel screen (SRB); assay type: cell-based, human; details: for Log10LC50 / Log10TGI50: UACC-257 (Melanoma); for Log10LC50: LC50: PG=−50; for Log10TGI50: TGI: PG=0
MOLT-4 = details: for Log10LC50 / Log10TGI50: MOLT-4 (Leukemia); for Log10LC50: LC50: PG=−50; for Log10TGI50: TGI: PG=0
How it was run: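 Sulforhodamine B staining of TCA-fixed cellular protein was the read-out, following 48 h compound exposure at 37 °C. Plates were pre-incubated 24 h before dosing, and five concentrations (routinely 10^−4 to 10^−8 molar) were tested in duplicate with time-zero and untreated controls. Values derive from test/control percentage growth relative to time-zero mass.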

SK-OV-3 = test: NCI 60 cell line panel screen (SRB); assay type: cell-based, human; details: for Log10GI50: Ovarian Cancer, SK-OV-3; for Log10LC50 / Log10TGI50: SK-OV-3 (Ovarian Cancer); for Log10LC50: LC50: PG=−50; for Log10TGI50: TGI: PG=0
SNB-19 = test: NCI 60 cell line panel screen (SRB); assay type: cell-based, human; details: for Log10GI50: CNS Cancer, SNB-19; for Log10LC50 / Log10TGI50: SNB-19 (CNS Cancer); for Log10LC50: LC50: PG=−50; for Log10TGI50: TGI: PG=0
OVCAR-8 = test: NCI 60 cell line panel screen (SRB); assay type: cell-based, human; details: for Log10LC50 / Log10TGI50: OVCAR-8 (Ovarian Cancer); for Log10LC50: LC50: PG=−50; for Log10TGI50: TGI: PG=0; for Log10GI50: Ovarian Cancer, OVCAR-8
HS 578T = test: NCI 60 cell line panel screen (SRB); assay type: cell-based, human; details: for Log10GI50: Breast Cancer, HS 578T; for Log10LC50 / Log10TGI50: HS 578T (Breast Cancer); for Log10LC50: LC50: PG=−50; for Log10TGI50: TGI: PG=0
NCI-H23 = test: NCI 60 cell line panel screen (SRB); assay type: cell-based, human; details: for Log10LC50 / Log10TGI50: NCI-H23 (Non-Small Cell Lung Cancer); for Log10LC50: LC50: PG=−50; for Log10TGI50: TGI: PG=0; for Log10GI50: Non-Small Cell Lung Cancer, NCI-H23
HOP-92 = test: NCI 60 cell line panel screen (SRB); assay type: cell-based, human; details: for Log10LC50 / Log10TGI50: HOP-92 (Non-Small Cell Lung Cancer); for Log10LC50: LC50: PG=−50; for Log10TGI50: TGI: PG=0; for Log10GI50: Non-Small Cell Lung Cancer, HOP-92

CC1CCC2C(C)C(CC(COC(=O)CCC(=O)O)CC3OC4OC5(C)CCC6C(C)CCC(C3C)C46OO5)OC3OC4(C)CCC1C32OO4 (stereo not drawn) [Compound 8a, bis-trioxane primary succinate monoester]
Log10LC50 (K-562): >−4.30 log10M
Log10TGI50 (K-562): >−4.30 log10M
Log10GI50 (K-562): <−8.30
Log10LC50 (NCI-H460): >−4.30 log10M
Log10TGI50 (NCI-H460): >−4.30 log10M
Log10GI50 (NCI-H460): <−8.30
Log10GI50 (SK-MEL-2; Melanoma, SK-MEL-2): −5.12
Log10LC50 (SK-MEL-2): >−4.30 log10M
Log10TGI50 (SK-MEL-2): >−4.30 log10M
Log10GI50 (SNB-75; CNS Cancer, SNB-75): −6.47
Log10LC50 (SNB-75): >−4.30 log10M
Log10TGI50 (SNB-75): >−4.30 log10M
Log10GI50 (SF-539): −5.27
Log10LC50 (SF-539): >−4.30 log10M
Log10TGI50 (SF-539): >−4.30 log10M
Log10GI50 (TK-10): −6.92
Log10LC50 (TK-10): >−4.30 log10M
Log10TGI50 (TK-10): −4.52 log10M
Log10GI50 (SK-MEL-28): −6.09
Log10LC50 (SK-MEL-28): >−4.30 log10M
Log10TGI50 (SK-MEL-28): >−4.30 log10M
Log10GI50 (RPMI-8226): <−8.30
Log10LC50 (RPMI-8226): >−4.30 log10M
Log10TGI50 (RPMI-8226): −6.19 log10M
Log10LC50 (OVCAR-5): >−4.30 log10M
Log10TGI50 (OVCAR-5): −6.62 log10M
Log10GI50 (OVCAR-5): <−8.30
Log10LC50 (CCRF-CEM): >−4.30 log10M
Log10TGI50 (CCRF-CEM): >−4.30 log10M
Log10GI50 (CCRF-CEM): <−8.30
Log10GI50 (UACC-257; Melanoma, UACC-257): −5.02
Log10LC50 (UACC-257): >−4.30 log10M
Log10TGI50 (UACC-257): >−4.30 log10M
concentration for cytotoxicity (percentage growth −50) (MOLT-4): greater than 10^−4 M
Log10GI50 (MOLT-4; Leukemia, MOLT-4): −8.18
Log10LC50 (MOLT-4): >−4.30 log10M
Log10TGI50 (MOLT-4): >−4.30 log10M
Log10GI50 (SK-OV-3): −4.89
Log10LC50 (SK-OV-3): >−4.30 log10M
Log10TGI50 (SK-OV-3): >−4.30 log10M
Log10GI50 (SNB-19): −5.62
Log10LC50 (SNB-19): >−4.30 log10M
Log10TGI50 (SNB-19): >−4.30 log10M
Log10LC50 (OVCAR-8): >−4.30 log10M
Log10TGI50 (OVCAR-8): >−4.30 log10M
Log10GI50 (OVCAR-8): >−4.30
Log10GI50 (HS 578T): >−4.30
Log10LC50 (HS 578T): >−4.30 log10M
Log10TGI50 (HS 578T): >−4.30 log10M
Log10LC50 (NCI-H23): >−4.30 log10M
Log10TGI50 (NCI-H23): >−4.30 log10M
Log10GI50 (NCI-H23): <−8.30
Log10LC50 (HOP-92): >−4.30 log10M
Log10TGI50 (HOP-92): >−4.30 log10M
Log10GI50 (HOP-92): −6.56

CC1CCC2C(C)C(CC(O)(CC3OC4OC5(C)CCC6C(C)CCC(C3C)C46OO5)CS(=O)(=O)c3ccc(C(=O)O)cc3)OC3OC4(C)CCC1C32OO4 (stereo not drawn) [Compound 10c, bis-trioxane β-hydroxysulfone benzoic acid]
Log10LC50 (K-562): >−4.30 log10M
Log10TGI50 (K-562): −4.75 log10M
Log10GI50 (K-562): <−8.30
Log10LC50 (NCI-H460): −4.62 log10M
Log10TGI50 (NCI-H460): −5.11 log10M
Log10GI50 (NCI-H460): <−8.30
Log10LC50 (SK-MEL-2): >−4.30 log10M
Log10TGI50 (SK-MEL-2): >−4.30 log10M
Log10LC50 (SNB-75): −4.32 log10M
Log10TGI50 (SNB-75): −4.80 log10M
Log10GI50 (SF-539): −5.19
Log10LC50 (SF-539): >−4.30 log10M
Log10TGI50 (SF-539): −4.66 log10M
Log10GI50 (TK-10): <−8.30
Log10LC50 (TK-10): −4.62 log10M
Log10TGI50 (TK-10): −5.40 log10M
Log10GI50 (SK-MEL-28): −5.45
Log10LC50 (SK-MEL-28): >−4.30 log10M
Log10TGI50 (SK-MEL-28): −4.63 log10M
Log10GI50 (RPMI-8226): <−8.30
Log10LC50 (RPMI-8226): >−4.30 log10M
Log10TGI50 (RPMI-8226): −5.03 log10M
Log10LC50 (OVCAR-5): −4.88 log10M
Log10TGI50 (OVCAR-5): <−8.30 log10M
Log10GI50 (OVCAR-5): <−8.30
Log10LC50 (CCRF-CEM): >−4.30 log10M
Log10TGI50 (CCRF-CEM): −4.84 log10M
Log10GI50 (CCRF-CEM): <−8.30
Log10LC50 (UACC-257): >−4.30 log10M
Log10TGI50 (UACC-257): −4.38 log10M
Log10LC50 (MOLT-4): >−4.30 log10M
Log10TGI50 (MOLT-4): >−4.30 log10M
Log10GI50 (SK-OV-3): −6.82
Log10LC50 (SK-OV-3): −4.47 log10M
Log10TGI50 (SK-OV-3): −4.92 log10M
Log10GI50 (SNB-19): −6.72
Log10LC50 (SNB-19): −4.44 log10M
Log10TGI50 (SNB-19): −4.96 log10M
Log10LC50 (OVCAR-8): >−4.30 log10M
Log10TGI50 (OVCAR-8): −4.48 log10M
Log10GI50 (OVCAR-8): −5.25
Log10GI50 (HS 578T): −4.82
Log10LC50 (HS 578T): >−4.30 log10M
Log10TGI50 (HS 578T): −4.53 log10M
Log10LC50 (NCI-H23): −4.77 log10M
Log10TGI50 (NCI-H23): −5.25 log10M
Log10GI50 (NCI-H23): <−8.30
Log10LC50 (HOP-92): −4.52 log10M
Log10TGI50 (HOP-92): −5.05 log10M
Log10GI50 (HOP-92): <−8.30
